Results from ChEMBL document CHEMBL1201862, “PubChem BioAssay data set” (2004).
Calls of active or inactive are those of the source.

Legend:
[1] = biological target: Luciferin 4-monooxygenase (Photinus pyralis, UniProt P08659); assay: Counter Screen for Luciferase-based Assay Positives. [Related pubchem assays: 620, 618, 411 ]
cells [2] = type: functional, cell-based
[3] = Trypanosoma cruzi growth suppression in host cells – NIH3T3 host cells, beta-gal luminescence, confirmation (AID 2044); type: functional, cell-based;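 further: intracellular parasites grown in NIH/3T3 mouse fibroblasts as host cells; luminescent beta-galactosidase reporter signal from transgenic T. cruzi replicating inside host cells; inhibitors lower the luminescence signal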
cells [4] = type: functional, cell-based; remark: listed apart in the source
HT-1080 = assay: HT1080 cell viability loss – fluorescence readout (AID 620); type: functional, cell-based; details: Homo sapiens
[5] = NIH3T3 cell viability loss – ATP luminescence, mouse fibroblasts, counter-screen, dose response (AID 2010); type: functional, cell-based;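 further: cells exposed to compound for about 90 hours before reading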
Nonstructural protein 1 = Nonstructural protein 1 (Influenza A virus, UniProt Q194T2); type: functional, Influenza A virus (A/California/07/2009(H1N1))
[6] = reduction of Shn3 3'UTR-driven luciferase in osteoblasts – cell-based, Clone20 osteoblasts, firefly luciferase, cherry-picked, dose response (AID 624132); type: functional;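 further: firefly luciferase luminescence from reporter carrying the Shn3 3'UTR in osteoblasts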
[7] = loss of viability in HepG2 cells – cell-based, CellTiter-Glo, cherry-picked, cytotoxicity control for Shn3 inhibitor project, dose response (AID 624134); type: functional
[8] = non-specific 3'UTR reporter inhibition in Clone20-Shn3RL – cell-based, Renilla luciferase, cherry-picked, counter-screen for Shn3 inhibitor project, dose response (AID 624133); type: functional
[9] = M. tuberculosis H37Rv growth inhibitors, H37Rv strain (AID 1626); type: functional
Cytochrome P450 2C19 = Cytochrome P450 2C19 (Homo sapiens, UniProt P33261); assay: Cytochrome panel assay with activity outcomes. Panel member name: p450-cyp2c19 Compounds with AC50 equal or less than 10 uM are considered active; type: functional; details: read-out: AC50
Leucine aminopeptidase = biological target: T1, Leucine aminopeptidase (Plasmodium falciparum 3D7, UniProt Q8IL11); assay: P. falciparum M17LAP inhibitors, primary screen, biochemical, fluorogenic H-Leu-NHMec substrate, 1536-well (AID 1619); type: functional
T1 sequence (Q8IL11 whole entry): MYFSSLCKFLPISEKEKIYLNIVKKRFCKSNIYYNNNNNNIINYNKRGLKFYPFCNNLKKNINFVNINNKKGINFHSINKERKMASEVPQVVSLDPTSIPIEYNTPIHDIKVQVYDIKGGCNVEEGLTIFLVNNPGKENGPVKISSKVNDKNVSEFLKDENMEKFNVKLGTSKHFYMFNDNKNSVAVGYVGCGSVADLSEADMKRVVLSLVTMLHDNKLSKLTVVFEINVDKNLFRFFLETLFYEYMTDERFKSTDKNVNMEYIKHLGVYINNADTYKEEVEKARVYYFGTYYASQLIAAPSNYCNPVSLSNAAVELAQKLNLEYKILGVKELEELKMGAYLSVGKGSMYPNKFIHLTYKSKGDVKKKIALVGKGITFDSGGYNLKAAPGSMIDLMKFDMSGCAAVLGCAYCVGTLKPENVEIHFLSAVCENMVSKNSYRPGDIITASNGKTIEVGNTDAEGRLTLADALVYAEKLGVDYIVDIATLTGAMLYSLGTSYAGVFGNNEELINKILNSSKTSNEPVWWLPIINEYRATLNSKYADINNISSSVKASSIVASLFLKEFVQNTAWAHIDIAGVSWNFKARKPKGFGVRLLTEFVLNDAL

[10] = A Cell Based Secondary Assay To Explore Cytotoxicity of Compounds that Sensitize Mycobacterium Tuberculosis to Beta-Lactam Antibiotics.; type: functional
Estrogen receptor = biological target: T2, Estrogen receptor (Homo sapiens, UniProt P03372);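 further: potency for inhibiting coactivator peptide recruitment to the receptor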
T2 sequence (P03372 whole entry): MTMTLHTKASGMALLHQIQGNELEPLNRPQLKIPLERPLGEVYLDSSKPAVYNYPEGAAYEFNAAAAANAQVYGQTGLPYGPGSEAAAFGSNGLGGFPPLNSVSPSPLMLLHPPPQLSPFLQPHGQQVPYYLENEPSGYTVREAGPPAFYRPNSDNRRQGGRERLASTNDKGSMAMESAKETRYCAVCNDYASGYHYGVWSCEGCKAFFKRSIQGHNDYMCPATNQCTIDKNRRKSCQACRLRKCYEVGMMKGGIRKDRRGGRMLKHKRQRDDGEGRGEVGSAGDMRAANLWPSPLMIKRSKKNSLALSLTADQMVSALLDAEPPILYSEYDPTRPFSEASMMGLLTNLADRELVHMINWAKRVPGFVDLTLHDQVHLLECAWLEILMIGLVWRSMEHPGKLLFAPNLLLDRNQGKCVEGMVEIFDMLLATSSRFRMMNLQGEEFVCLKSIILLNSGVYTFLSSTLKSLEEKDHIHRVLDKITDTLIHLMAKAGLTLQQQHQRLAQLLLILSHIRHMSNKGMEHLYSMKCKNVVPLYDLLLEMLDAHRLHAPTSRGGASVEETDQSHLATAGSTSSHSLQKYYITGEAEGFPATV

[11] = viability of PTEN-deleted HCT116 cells – cell-based, HCT116 PTEN knockout, dose response (AID 1047); type: functional;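 further: HCT116 colon tumor cells with PTEN knocked out; cells exposed to compound for 60 hours before readout; potency for loss of cell viability measured by luminescence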
[12] = viability of HCT116 lacking mutant beta-catenin – cell-based, human colon tumor, dose response (AID 1045); type: functional;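 further: HCT116 colon tumor cells with beta catenin knocked out; cells exposed to compound for 60 hours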
[13] = luciferase reporter signal reduction – luminescence, H4-C neuroglioblastoma cells, dose response (AID 2458); type: functional, cell-based;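 further: H4 neuroglioblastoma cells stably carrying a luciferase reporter gene fusion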
cells [14] = type: functional, cell-based; remark: listed apart in the source
[15] = Luminescence Cell-Based Dose Response HTS to Identify Inhibitors of 5'UTR Stem-Loop Driven Prion Protein mRNA Translation in H4 Neuroglioblastoma Cells. [Related pubchem assays: 1827 (Project Summary), 1813 (Primary HTS)]; type: functional
[16] = alpha-synuclein stem-loop luciferase translation blockers – H4 neuroglioma cells, luminescence, confirmation (AID 1988); type: functional, cell-based
[17] = Luminescence-based dose response cell-based high throughput screening assay for cytotoxic compounds using the IEC-6 intestinal epithelial cell line. [Related pubchem assays: 1858 (Summary AID.), 1825 (Counterscreen.), 1907 (Confirmation screen.)]; type: functional
[18] = alpha-synuclein stem-loop translation blockers – luminescence, H4 neuroglioblastoma cells, dose confirmation, confirmation (AID 2454); type: functional, cell-based;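 further: H4 neuroglioblastoma cells carrying an alpha-synuclein 5'UTR luciferase reporter; potency for inhibition of the luciferase signal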
[19] = HEK-293T viability loss after treatment – luminescence, T-cell screen hits, cytotoxicity control for TCR NF-kB inhibitor project, dose response (AID 489026); type: functional, cell-based;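 further: cells exposed to compound about 14 hours before the viability readout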
[20] = test system: Streptococcus sp. 'group A'; assay: Streptococcus pyogenes SK(-)GAS viability under kanamycin – luminescence, BacTiterGlo, confirmation, counter-screen for streptokinase expression inhibitor project, dose response (AID 1900); type: functional, organism-based
Streptokinase A = biological target: T3, Streptokinase A (Streptococcus pyogenes serotype M1, UniProt P10520); assay: viability-normalized secreted streptokinase activity reduction – plasminogen activation absorbance, OD405, dose response (AID 1914); type: functional, Streptococcus pyogenes M1 GAS;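 further: secreted streptokinase activity via plasminogen activation per viability signal from cell pellet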
T3 sequence (P10520 whole entry): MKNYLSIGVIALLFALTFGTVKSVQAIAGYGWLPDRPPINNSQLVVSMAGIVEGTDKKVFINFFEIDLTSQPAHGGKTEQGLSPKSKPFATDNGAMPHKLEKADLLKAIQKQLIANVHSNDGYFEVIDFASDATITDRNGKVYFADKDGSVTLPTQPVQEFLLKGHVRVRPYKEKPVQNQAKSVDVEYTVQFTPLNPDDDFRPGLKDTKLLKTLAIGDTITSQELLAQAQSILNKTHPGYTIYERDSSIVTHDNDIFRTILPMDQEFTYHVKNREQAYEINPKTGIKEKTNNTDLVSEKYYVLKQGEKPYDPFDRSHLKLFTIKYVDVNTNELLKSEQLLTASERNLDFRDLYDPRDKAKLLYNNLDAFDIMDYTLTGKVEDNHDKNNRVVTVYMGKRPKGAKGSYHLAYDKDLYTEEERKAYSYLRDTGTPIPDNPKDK

Streptococcus = assay: GAS UMAA2166 growth inhibition – luminescence, BacTiterGlo, counter-screen for streptokinase expression inhibitor project, dose response (AID 1915); type: functional, organism-based;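 further: potency for reduction of bacterial viability or growth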
Trypsin = Trypsin (Sus scrofa, UniProt P00761); assay: trypsin protease activity blockade – biochemical, quenched peptide fluorescence, cherry-pick, selectivity assay for Rce1 protease inhibitor project, dose response (AID 488789)
Aminopeptidase N = biological target: T4, Aminopeptidase N (Plasmodium falciparum FcB1/Columbia, UniProt O96935); assay: malaria alanyl aminopeptidase activity blockers – biochemical, fluorogenic H-Leu-NHMec substrate, 1536-well (AID 1445); set-up: species or system Plasmodium falciparum 3D7, 3D7
T4 sequence (O96935 whole entry): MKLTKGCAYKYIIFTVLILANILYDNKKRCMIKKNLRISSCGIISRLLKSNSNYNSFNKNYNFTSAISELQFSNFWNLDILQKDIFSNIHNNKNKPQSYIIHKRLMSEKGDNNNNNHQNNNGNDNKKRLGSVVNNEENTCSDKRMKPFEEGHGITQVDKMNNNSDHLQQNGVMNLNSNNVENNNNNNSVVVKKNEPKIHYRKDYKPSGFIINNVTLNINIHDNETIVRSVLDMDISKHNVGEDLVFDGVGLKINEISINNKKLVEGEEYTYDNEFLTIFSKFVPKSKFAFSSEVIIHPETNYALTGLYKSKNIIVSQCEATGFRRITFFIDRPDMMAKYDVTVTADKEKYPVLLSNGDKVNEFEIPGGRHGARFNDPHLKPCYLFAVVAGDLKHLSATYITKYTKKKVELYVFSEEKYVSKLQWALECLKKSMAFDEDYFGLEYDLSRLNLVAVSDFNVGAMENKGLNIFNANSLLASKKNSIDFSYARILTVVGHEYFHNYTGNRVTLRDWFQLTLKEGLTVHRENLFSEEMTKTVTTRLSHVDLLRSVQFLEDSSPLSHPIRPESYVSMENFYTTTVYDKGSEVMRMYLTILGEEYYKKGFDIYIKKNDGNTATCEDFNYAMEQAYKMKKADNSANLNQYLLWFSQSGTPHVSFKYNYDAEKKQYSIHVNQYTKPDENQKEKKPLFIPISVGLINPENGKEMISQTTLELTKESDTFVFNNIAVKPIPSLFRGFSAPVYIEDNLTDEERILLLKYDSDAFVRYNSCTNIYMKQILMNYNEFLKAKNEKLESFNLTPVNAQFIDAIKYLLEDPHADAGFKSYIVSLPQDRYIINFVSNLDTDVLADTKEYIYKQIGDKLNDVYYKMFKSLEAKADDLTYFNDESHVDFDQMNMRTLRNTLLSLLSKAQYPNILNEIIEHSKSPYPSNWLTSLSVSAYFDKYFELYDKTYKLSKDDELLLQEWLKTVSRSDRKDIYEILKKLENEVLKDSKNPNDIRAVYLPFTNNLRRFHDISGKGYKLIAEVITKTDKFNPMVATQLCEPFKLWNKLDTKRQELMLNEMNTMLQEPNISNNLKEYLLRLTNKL

Sequence of Nonstructural protein 1 (Q194T2 whole entry): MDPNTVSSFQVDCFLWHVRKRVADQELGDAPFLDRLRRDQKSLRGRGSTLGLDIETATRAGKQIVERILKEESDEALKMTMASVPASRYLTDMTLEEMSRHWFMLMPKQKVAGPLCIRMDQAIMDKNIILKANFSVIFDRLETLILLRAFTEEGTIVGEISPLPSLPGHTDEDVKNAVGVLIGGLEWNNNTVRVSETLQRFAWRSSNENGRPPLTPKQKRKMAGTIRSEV
Sequence of Trypsin (P00761 whole entry): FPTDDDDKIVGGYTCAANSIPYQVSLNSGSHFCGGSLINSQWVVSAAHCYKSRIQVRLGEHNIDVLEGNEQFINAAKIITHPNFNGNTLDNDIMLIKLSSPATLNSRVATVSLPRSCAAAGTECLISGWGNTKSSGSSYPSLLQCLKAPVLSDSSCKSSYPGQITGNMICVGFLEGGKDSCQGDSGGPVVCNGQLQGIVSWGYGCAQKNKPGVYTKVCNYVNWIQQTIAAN
Sequence of Luciferin 4-monooxygenase (P08659 whole entry): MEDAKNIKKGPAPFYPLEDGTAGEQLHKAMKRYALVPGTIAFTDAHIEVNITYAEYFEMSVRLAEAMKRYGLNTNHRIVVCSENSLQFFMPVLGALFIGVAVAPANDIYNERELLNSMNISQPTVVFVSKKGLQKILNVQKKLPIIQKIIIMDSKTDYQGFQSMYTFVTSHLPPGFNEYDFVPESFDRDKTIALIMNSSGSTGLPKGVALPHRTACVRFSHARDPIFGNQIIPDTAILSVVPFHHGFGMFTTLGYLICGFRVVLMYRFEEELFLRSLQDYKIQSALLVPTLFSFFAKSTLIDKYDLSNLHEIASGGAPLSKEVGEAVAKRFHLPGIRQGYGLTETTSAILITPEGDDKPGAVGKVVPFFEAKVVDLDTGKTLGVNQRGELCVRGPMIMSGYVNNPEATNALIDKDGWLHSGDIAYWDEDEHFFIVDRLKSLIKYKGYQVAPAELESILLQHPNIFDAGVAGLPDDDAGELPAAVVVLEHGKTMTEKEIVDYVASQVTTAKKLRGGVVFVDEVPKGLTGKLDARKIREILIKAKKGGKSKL
Sequence of Cytochrome P450 2C19 (P33261 whole entry): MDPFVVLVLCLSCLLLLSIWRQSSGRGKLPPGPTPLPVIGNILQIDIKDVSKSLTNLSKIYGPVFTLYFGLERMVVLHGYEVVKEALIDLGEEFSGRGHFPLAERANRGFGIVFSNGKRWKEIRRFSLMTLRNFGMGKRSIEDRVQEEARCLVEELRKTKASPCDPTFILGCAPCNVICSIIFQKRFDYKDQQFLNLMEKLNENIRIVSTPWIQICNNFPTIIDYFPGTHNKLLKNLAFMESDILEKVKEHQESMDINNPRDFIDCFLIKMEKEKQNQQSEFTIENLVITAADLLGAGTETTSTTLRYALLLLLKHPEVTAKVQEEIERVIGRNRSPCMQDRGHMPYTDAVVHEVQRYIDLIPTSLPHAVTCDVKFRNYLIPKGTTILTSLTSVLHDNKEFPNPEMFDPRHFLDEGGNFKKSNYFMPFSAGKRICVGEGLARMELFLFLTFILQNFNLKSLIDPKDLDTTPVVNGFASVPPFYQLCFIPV

## C=CCNc1nc(-c2ccccn2)nnc1-c1ccccc1
[1]
  EC50: < 0.2 µM (active)
Cells [2]
  EC50: 7.13 µM (active)
[3]
  EC50: 2.27 µM (active)
Cells [4]
  EC50: > 350 µM (not active)
HT-1080
  EC50: > 50 µM (not active)
[5]
  EC50: 5.1 µM (active)
Nonstructural protein 1
  IC50: 1.25 µM (active)
[6]
  AC50: 3.17 µM (active)
[7]
  AC50: 6.36 µM (active)
[8]
  AC50: 3.97 µM (active)

## Oc1c(/C=N/c2ccc(Oc3ccccc3)cc2)cnn1-c1cccc(Cl)n1
[9]
  IC50: > 100 µM (active)
Cytochrome P450 2C19
  AC50: 11.2 µM (inconclusive)

## COc1ccc(NC(=O)CC(Cc2ccccc2)C(=O)O)cc1 (stereo unspecified)
Leucine aminopeptidase
  IC50: 18.7 µM (active)

## C[C@@H]1CC=C[C@H]2[C@H]1C(=O)N(Cc1ccccc1)[C@H]2c1ccc(/C=C/c2ccccc2)cc1F
[10]
  CC50: > 40 µM (active)

## COc1cccc(OCc2nnc(SCC(=O)NCc3ccco3)n2CCc2ccccc2)c1
Estrogen receptor
  IC50: > 50 µM (not active)

## COc1ccc(-c2c(C(F)(F)F)oc3cc(OCC(=O)Nc4ccccc4C(F)(F)F)ccc3c2=O)cc1OC
[10]
  CC50: 10.9 µM (active)
[11]
  EC50: 3.45 µM (active)
[12]
  EC50: 3.72 µM (active)

## CC/C=C/CC(=O)N[C@@H](c1ccccc1)[C@@H](O)C(=O)O[C@H]1C[C@@]2(O)[C@@H](OC(=O)c3ccccc3)C3[C@](C)(C(=O)[C@H](OC(C)=O)C(=C1C)C2(C)C)[C@@H](O)C[C@H]1OC[C@@]31OC(C)=O (stereo partly specified)
[13]
  EC50: 0.062 µM (active)
Cells [14]
  EC50: 0.307 µM (active)
[15]
  EC50: < 0.1 µM (active)
[16]
  EC50: < 0.1 µM (active)
[17]
  IC50: 0.0795 µM (active)
[18]
  EC50: 0.021 µM (active)
[19]
  IC50: > 80 µM (inactive)

## O=C(CCC(=O)Nc1ccc(Oc2ccccc2)cc1)NCCO
[9]
  IC50: > 100 µM (active)

## CCC/C(=N/Nc1ccc(Cl)cc1)c1cnnc(-c2ccccc2)n1
Estrogen receptor
  IC50: 3.85 µM (active)

## CCOc1ccc2[nH]c3c(N4CCc5ccccc5C4)ncnc3c2c1
[20]
  EC50: 10.4 µM (active)
Streptokinase A
  EC50: > 150 µM (not active)
[17]
  IC50: 5.99 µM (active)
Streptococcus
  EC50: 19.9 µM (active)
Trypsin
  AC50: 6.04 µM (active)

## COc1cccc(/C=N/NC(=O)NC23CC4CC(CC(C4)C2)C3)c1O
[10]
  CC50: 23.3 µM (active)

## COCCCn1c(=N)c(C(=O)NCC2CCCO2)cc2c(=O)n3cccc(C)c3nc21 (stereo unspecified)
Aminopeptidase N
  IC50: 78.4 µM (active)

## Cc1nccc(-c2cccc(N/N=C(\C#N)C(=O)c3ccccc3)c2)n1
Aminopeptidase N
  IC50: 16 µM (active)

## Cc1ncc(CC(=O)n2cc(C(=O)c3cc(F)ccc3O)cn2)s1
Leucine aminopeptidase
  IC50: 71.1 µM (active)
